Patent publication US11661422B2, “Tricyclic urea compounds as JAK2 V617F inhibitors” (Incyte Corporation, priority 2020, dated 2023)
Where a name gives a salt, the structure may show the parent alone.

Assays:
[1] = target: pseudo-kinase domain (JH2, amino-acids 536-812) of human V617F mutant JAK2 (Homo sapiens (Human), UniProt O60674, F794H/V617F/W659A/W777A); assay: JAK2 LanthaScreen JH2-V617F Binding Assay; conditions: JAK2 JH2-V617F 0.26 nM, 50 nM fluorescent tracer, 1 hour at 25° C.; read-out: JH2 BIND V617F IC50
Sequence of pseudo-kinase domain (JH2, amino-acids 536-812) of human V617F mutant JAK2 (O60674 536-812 V617F/W659A/W777A/F794H): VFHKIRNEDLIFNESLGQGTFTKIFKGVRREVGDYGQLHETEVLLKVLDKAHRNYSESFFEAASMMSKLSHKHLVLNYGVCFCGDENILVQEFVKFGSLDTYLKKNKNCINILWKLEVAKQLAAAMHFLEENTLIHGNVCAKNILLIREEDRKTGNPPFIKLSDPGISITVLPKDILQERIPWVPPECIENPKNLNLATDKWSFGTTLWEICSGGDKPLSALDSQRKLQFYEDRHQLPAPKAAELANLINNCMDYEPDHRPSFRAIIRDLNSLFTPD
Description: The assay was conducted in black 384-well polystyrene plates in a final reaction volume of 20 μL. […] Non-specific binding was accessed in the presence of 2 mM ATP. After incubation for 1 hour at 25° C., LanthaScreen signals were read on a PHERAstar FS plate reader (BMG LABTECH). Data was analyzed with IDBS XLfit and GraphPad Prism 5.0 software using a four parameter dose response curve to determine IC50 for each compound.

[2] = target: catalytic domain (JH1, amino acids 826-1132) of human JAK2 (Homo sapiens (Human), UniProt O60674); assay: JAK2 LanthaScreen JH1 Binding Assay; conditions: JAK2 JH1 1.5 nM, 50 nM fluorescent tracer, 2 hours at 25° C.; read-out: JH1 BIND IC50
Sequence of catalytic domain (JH1, amino acids 826-1132) of human JAK2 (O60674 826-1132): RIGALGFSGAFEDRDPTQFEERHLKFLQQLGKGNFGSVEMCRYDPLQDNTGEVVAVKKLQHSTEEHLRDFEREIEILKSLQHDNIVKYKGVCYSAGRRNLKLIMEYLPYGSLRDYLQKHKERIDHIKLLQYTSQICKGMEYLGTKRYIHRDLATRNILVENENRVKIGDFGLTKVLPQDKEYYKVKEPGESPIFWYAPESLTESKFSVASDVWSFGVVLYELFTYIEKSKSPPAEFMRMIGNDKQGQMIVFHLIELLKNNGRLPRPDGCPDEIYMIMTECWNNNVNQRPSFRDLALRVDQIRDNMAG
Description: Example A. JAK2 LanthaScreen JH1 Binding Assay
(§1) JAK2 JH1 binding assay utilizes catalytic domain (JH1, amino acids 826-1132) of human JAK2 expressed as N-terminal FLAG-tagged, biotinylated protein in a baculovirus expression system (Carna Biosciences, Product #08-445-20N). The assay was conducted in black 384-well polystyrene plates in a final reaction volume of 20 μL. JAK2 JH1 (1.5 nM) was incubated with compounds (100 nL serially diluted in DMSO) in the presence of 50 nM Fluorescent JAK2-JH1 Tracer and 0.5 nM Streptavidin-Tb cryptate (Cisbio Part #610SATLB) in assay buffer (50 mM Tris, pH=7.5, 10 mM MgCl2, 0.01% Brij-35, 0.1% BSA, 1 mM EGTA, 5% Glycerol and 5 mM DTT). Non-specific binding was accessed in the presence of 2 mM ATP. After incubation for 2 hours at 25° C., LanthaScreen signals were read on a PHERAstar FS plate reader (BMG LABTECH). Data was analyzed with IDBS XLfit and GraphPad Prism 5.0 software using a four parameter dose response curve to determine IC50 for each compound.

[3] = target: pseudo-kinase domain (JH2, amino-acids 536-812) of human Wild Type JAK2 (Homo sapiens (Human), UniProt O60674, F794H/W659A/W777A); assay: JAK2 LanthaScreen JH2-WT Binding Assay; conditions: JAK2 JH2-WT 0.145 nM, 50 nM fluorescent tracer, 1 hour at 25° C.; read-out: JH2 BIND WT IC50
Sequence of pseudo-kinase domain (JH2, amino-acids 536-812) of human Wild Type JAK2 (O60674 536-812 W659A/W777A/F794H): as the sequence (O60674 536-812 V617F/W659A/W777A/F794H) above, with F82V counted along it
Description: Example B. JAK2 LanthaScreen JH2-WT Binding Assay
as §1, with “The” for “JAK2 JH1 binding assay utilizes catalytic domain (JH1, amino acids 826-1132) of human JAK2 expressed as N-terminal FLAG-tagged, biotinylated protein in a baculovirus expression system (Carna Biosciences, Product #08-445-20N). The”, “JH2-WT (0.145” for “JH1 (1.5”, “JAK2-JH2” for “JAK2-JH1”, “Tracer (MedChem Express Catalog #HY-102055)” for “Tracer”, “0.25” for “0.5”, “1 hour” for “2 hours”

[4] = target: catalytic domain (JH1, amino acids 808-1132) of human JAK2 (Homo sapiens (Human), UniProt O60674); assay: JAK2 HTRF Enzyme Activity Assay; assay type: biochemical; conditions: JAK2 0.015 nM, ATP (30 μM or 1 mM), 60 minutes at 25° C.
Sequence of catalytic domain (JH1, amino acids 808-1132) of human JAK2 (O60674 808-1132): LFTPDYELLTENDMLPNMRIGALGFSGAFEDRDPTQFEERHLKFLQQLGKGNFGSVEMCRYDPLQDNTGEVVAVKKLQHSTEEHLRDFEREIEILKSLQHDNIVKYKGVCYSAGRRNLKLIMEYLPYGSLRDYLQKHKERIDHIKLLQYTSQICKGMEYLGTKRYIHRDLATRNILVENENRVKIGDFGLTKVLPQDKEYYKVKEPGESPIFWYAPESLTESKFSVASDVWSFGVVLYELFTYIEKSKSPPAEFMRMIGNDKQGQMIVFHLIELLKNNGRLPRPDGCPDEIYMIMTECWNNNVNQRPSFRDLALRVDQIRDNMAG
Description: Example D. JAK2 HTRF Enzyme Activity Assay
JAK2 enzyme activity assays utilize catalytic domain (JH1, amino acids 808-1132) of human JAK2 expressed as N-terminal His-tagged protein in a baculovirus expression system (BPS Bioscience, Catalog #40450). The assays was conducted in black 384-well polystyrene plates in a final reaction volume of 20 μL. JAK2 (0.015 nM) was incubated with compounds (100 nL serially diluted in DMSO) in the presence of ATP (30 μM or 1 mM) and 500 nM Biotin-labeled […] (SEQ ID NO.: 1) peptide (BioSource International, custom synthesis) in assay buffer (50 mM Tris, pH=7.5, 10 mM MgCl2, 0.01% Brij-35, 0.1% BSA, 1 mM EGTA, 5% Glycerol and 5 mM DTT) for 60 minutes at 25° C. The reactions were stopped by the addition of 10 μL of detection buffer (50 mM Tris, pH 7.8, 0.5 mg/mL BSA, 150 mM NaCl), supplemented with EDTA, LANCE Eu-W1024 anti-phosphotyrosine (PY20), (PerkinElmer, Catalog #AD0067) and Streptavidin SureLight APC (PerkinElmer Catalog #CR130-100), for a final concentration of 15 mM, 1.5 nM and 75 nM, respectively. HTRF signals were read after 30 minutes incubation at room temperature on a PHERAstar FS plate reader (BMG LABTECH). Data was analyzed with IDBS XLfit and GraphPad Prism 5.0 software using a four parameter dose response curve to determine IC50 for each compound.

Structure (SMILES)	IC50 [1]	IC50 [2]	IC50 [3]	IC50 [4]
CC1c2c(cnc3[nH]c(-c4ccc(CN5CCC(S(C)(=O)=O)CC5)cc4)cc23)N(C)C(=O)N1c1ccc(C(=O)O)cc1 (racemic) [Example 10, 4-(1,4-Dimethyl-8-(4-((4-(methylsulfonyl)piperidin-1-yl)methyl)phenyl)-3-oxo-1,3,4,7-tetrahydro-2H-pyrrolo[3′,2′:5,6]pyrido[3,4-d]pyrimidin-2-yl)benzoic Acid]	100 to 500 nM	1000 to 2500 nM	≤ 100 nM	1000 to 2500 nM
CC(C(N)=O)n1cc(-c2ccc(-c3c(-c4ccc(CN5CCC(S(C)(=O)=O)CC5)cc4)[nH]c4ncc5c(c34)CN(C(C)(C)C)C(=O)N5C)cc2)cn1 (racemic) [Example 19, 2-(4-(4-(2-(tert-Butyl)-4-methyl-8-(4-((4-(methylsulfonyl)piperidin-1-yl)methyl)phenyl)-3-oxo-2,3,4,7-tetrahydro-1H-pyrrolo[3′,2′:5,6]pyrido[3,4-d]pyrimidin-9-yl)phenyl)-1H-pyrazol-1-yl)propanamide Trifluoroacetic Acid Salt]	≤ 100 nM	≤ 100 nM	≤ 100 nM	≤ 100 nM
CN1C(=O)NCc2c1cnc1[nH]c(-c3ccc(CN4CCC(S(C)(=O)=O)CC4)cc3)cc21 [Example 1, 4-Methyl-8-(4-((4-(methylsulfonyl)piperidin-1-yl)methyl)phenyl)-1,2,4,7-tetrahydro-3H-pyrrolo[3′,2′:5,6]pyrido[3,4-d]pyrimidin-3-one]	500 to 1000 nM	≤ 100 nM	100 to 500 nM	≤ 100 nM
CN1C(=O)N(c2ccccc2)Cc2c1cnc1[nH]c(-c3ccc(CN4CCC(S(C)(=O)=O)CC4)cc3)cc21 [Example 2, 4-Methyl-8-(4-((4-(methylsulfonyl)piperidin-1-yl)methyl)phenyl)-2-phenyl-1,2,4,7-tetrahydro-3H-pyrrolo[3′,2′:5,6]pyrido[3,4-b]pyrimidin-3-one]	500 to 1000 nM	≤ 100 nM	100 to 500 nM	≤ 100 nM
CN1C(=O)N(c2ccc(C(=O)O)cc2)Cc2c1cnc1[nH]c(-c3ccc(CN4CCC(S(C)(=O)=O)CC4)cc3)cc21 [Example 3, 4-(4-Methyl-8-(4-((4-(methylsulfonyl)piperidin-1-yl)methyl)phenyl)-3-oxo-1,3,4,7-tetrahydro-2H-pyrrolo[3′,2′:5,6]pyrido[3,4-d]pyrimidin-2-yl)benzoic Acid]	≤ 100 nM	1000 to 2500 nM	≤ 100 nM	1000 to 2500 nM
CS(=O)(=O)C1CCN(Cc2ccc(-c3cc4c5c(cnc4[nH]3)NC(=O)N(C3CCCCC3)C5)cc2)CC1 [Example 5, 2-Cyclohexyl-8-(4-((4-(methylsulfonyl)piperidin-1-yl)methyl)phenyl)-1,2,4,7-tetrahydro-3H-pyrrolo[3′,2′:5,6]pyrido[3,4-d]pyrimidin-3-one]	500 to 1000 nM	≤ 100 nM	100 to 500 nM	≤ 100 nM
CS(=O)(=O)C1CCN(Cc2ccc(-c3cc4c5c(cnc4[nH]3)NC(=O)N(C3CCN(S(N)(=O)=O)CC3)C5)cc2)CC1 [Example 7, 4-(8-(4-((4-(methylsulfonyl)piperidin-1-yl)methyl)phenyl)-3-oxo-1,3,4,7-tetrahydro-2H-pyrrolo[3′,2′:5,6]pyrido[3,4-d]pyrimidin-2-yl)piperidine-1-sulfonamide]	1000 to 2500 nM	≤ 100 nM	500 to 1000 nM	≤ 100 nM
COCCNc1ccc(N2Cc3c(cnc4[nH]c(-c5ccc(CN6CCC(S(C)(=O)=O)CC6)cc5)cc34)N(C)C2=O)cc1 [Example 8, 2-(4-((2-Methoxyethyl)amino)phenyl)-4-methyl-8-(4-((4-(methylsulfonyl)piperidin-1-yl)methyl)phenyl)-1,2,4,7-tetrahydro-3H-pyrrolo[3′,2′:5,6]pyrido[3,4-d]pyrimidin-3-one]	500 to 1000 nM	100 to 500 nM	100 to 500 nM	100 to 500 nM
CN1C(=O)N(c2ccc(NC(=O)CC#N)cc2)Cc2c1cnc1[nH]c(-c3ccc(CN4CCC(S(C)(=O)=O)CC4)cc3)cc21 [Example 9, 2-Cyano-N-(4-(4-methyl-8-(4-((4-(methylsulfonyl)piperidin-1-yl)methyl)phenyl)-3-oxo-1,3,4,7-tetrahydro-2H-pyrrolo[3′,2′:5,6]pyrido[3,4-d]pyrimidin-2-yl)phenyl)acetamide]	100 to 500 nM	100 to 500 nM	100 to 500 nM	100 to 500 nM
COc1ccc(-c2c(-c3ccc(CN4CCC(S(C)(=O)=O)CC4)cc3)[nH]c3ncc4c(c23)CN(c2ccc(C(=O)Nc3cccnc3)cc2)C(=O)N4C)cc1 [Example 11, 4-(9-(4-Methoxyphenyl)-4-methyl-8-(4-((4-(methylsulfonyl)piperidin-1-yl)methyl)phenyl)-3-oxo-1,3,4,7-tetrahydro-2H-pyrrolo[3′,2′:5,6]pyrido[3,4-d]pyrimidin-2-yl)-N-(pyridin-3-yl)benzamide, Bistrifluoroacetic Acid Salt]	≤ 100 nM	> 2500 nM	≤ 100 nM	> 2500 nM
CNC(=O)c1ccc(N2Cc3c(cnc4[nH]c(-c5ccc(CN6CCC(S(C)(=O)=O)CC6)cc5)c(-c5ccc(OC)cc5)c34)N(C)C2=O)cc1 [Example 12, 4-(9-(4-methoxyphenyl)-4-methyl-8-(4-((4-(methylsulfonyl)piperidin-1-yl)methyl)phenyl)-3-oxo-1,3,4,7-tetrahydro-2H-pyrrolo[3′,2′:5,6]pyrido[3,4-d]pyrimidin-2-yl)-N-methylbenzamide, trifluroacetate]	≤ 100 nM	1000 to 2500 nM	≤ 100 nM	1000 to 2500 nM
COc1ccc(-c2c(-c3ccc(CN4CCC(S(C)(=O)=O)CC4)cc3)[nH]c3ncc4c(c23)CN(c2ccc(C(=O)NCC(=O)NNCc3ccccc3)cc2)C(=O)N4C)cc1 [Example 13, N-(2-(2-Benzylhydrazineyl)-2-oxoethyl)-4-(9-(4-methoxyphenyl)-4-methyl-8-(4-((4-(methylsulfonyl)piperidin-1-yl)methyl)phenyl)-3-oxo-1,3,4,7-tetrahydro-2H-pyrrolo[3′,2′: 5,6]pyrido[3,4-d]pyrimidin-2-yl)benzamide, TFA]	–	1000 to 2500 nM	–	1000 to 2500 nM
